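In this assay, cells in 96-well plates receive the compound at five concentrations for 48 hours. Endpoints are linearly interpolated between the surrounding concentrations. Here, GI50 denotes the concentration required for 50% inhibition of growth. Definition used: TGI = concentration required for complete inhibition of growth.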

Among the test systems are SW-620 colon; RPMI-8226 leukemia; OVCAR-3 ovarian; UACC-62 melanoma; HCT-15 colon; HCT-116 colon; NCI/ADR-RES ovarian; MDA-MB-231 breast; NCI-H522 lung; HOP-62 NSCLC.
Experiment in all cases: inhibition of tumour cell growth, NCI panel, 48 h

Turning to `CCC1(c2ccc(N)cc2)CCC(=O)NC1=O` (stereo not given), the TGI is over 3970 µM in the assay with SW-620 colon; over 5000 µM in the assay with RPMI-8226 leukemia; over 3970 µM with OVCAR-3 ovarian; over 4510 µM in the assay with UACC-62 melanoma; over 5000 µM with HCT-15 colon; over 5000 µM in the assay on HCT-116 colon. Also, the TGI is 4820 µM in the assay on NCI/ADR-RES ovarian, over 5000 µM in the assay with MDA-MB-231 breast, 4950 µM with NCI-H522 lung and over 1580 µM in the assay with HOP-62 NSCLC.
For the molecule `[Cu+2].[NH-]C(CC(=O)O)C(=O)O.[NH-]C(CC(=O)O)C(=O)O` (stereo not given), the GI50 in the assay with SW-620 colon, with RPMI-8226 leukemia, in the assay with OVCAR-3 ovarian, with UACC-62 melanoma, in the assay with HCT-15 colon and with HCT-116 colon was over 100 µM in each case. Moreover, the GI50 with NCI/ADR-RES ovarian was over 100 µM; in the assay on MDA-MB-231 breast, over 100 µM; in the assay with NCI-H522 lung, 91.8 µM; in the assay with HOP-62 NSCLC, over 100 µM. The TGI in the assay with SW-620 colon, in the assay with RPMI-8226 leukemia, in the assay with OVCAR-3 ovarian, with UACC-62 melanoma, with HCT-15 colon and in the assay on HCT-116 colon was over 100 µM each time. The TGI with NCI/ADR-RES ovarian, in the assay with MDA-MB-231 breast, with NCI-H522 lung and with HOP-62 NSCLC was over 100 µM each time.
For `Cc1ccc(OCCOCCOCCOCCOCCOc2ccc(C)n(O)c2=S)c(=S)n1O`, the GI50 with SW-620 colon is 0.0544 µM; with RPMI-8226 leukemia it was 0.0713 µM; with OVCAR-3 ovarian, 0.0377 µM; in the assay on UACC-62 melanoma, 0.0815 µM; in the assay with HCT-15 colon, 0.0392 µM; in the assay with HCT-116 colon, 0.0302 µM. The GI50 is 0.0478 µM with NCI/ADR-RES ovarian, 0.062 µM in the assay on MDA-MB-231 breast, 0.0386 µM in the assay with NCI-H522 lung and 0.0789 µM with HOP-62 NSCLC. Further, the TGI with SW-620 colon is over 100 µM; with RPMI-8226 leukemia it was over 100 µM; in the assay with OVCAR-3 ovarian, 18.7 µM; in the assay with UACC-62 melanoma it was 12.5 µM; in the assay on HCT-15 colon, over 100 µM; in the assay on HCT-116 colon, 27.5 µM. Also, the TGI is over 77 µM in the assay on NCI/ADR-RES ovarian, over 100 µM with MDA-MB-231 breast, over 100 µM in the assay with NCI-H522 lung and over 84.6 µM in the assay on HOP-62 NSCLC.
For `C/C=C(\C)C(=O)O[C@H]1C=CC(=O)O[C@H]1COC(=O)[C@H](C)O`, the GI50 was 4.28 µM with SW-620 colon; 3.2 µM in the assay with RPMI-8226 leukemia; 3.44 µM in the assay on OVCAR-3 ovarian; 7.71 µM in the assay with UACC-62 melanoma; 3.74 µM in the assay on HCT-15 colon; 2.72 µM in the assay on HCT-116 colon. Further, the GI50 in the assay on NCI/ADR-RES ovarian was 12.1 µM; with MDA-MB-231 breast, 12.1 µM; with NCI-H522 lung, 7.1 µM; in the assay with HOP-62 NSCLC, 19.8 µM. The TGI with SW-620 colon was 15.1 µM; with RPMI-8226 leukemia, 14.5 µM; in the assay on OVCAR-3 ovarian, 14 µM; in the assay with UACC-62 melanoma, 21 µM; in the assay on HCT-15 colon, 16.2 µM; in the assay on HCT-116 colon it was 10.9 µM. The TGI was determined as 32.6 µM in the assay with NCI/ADR-RES ovarian, 28.3 µM with MDA-MB-231 breast, 23.7 µM with NCI-H522 lung and 35.4 µM with HOP-62 NSCLC.
`COC(=O)c1oc2c(C(=O)/C=C/c3ccc(OC)cc3)c(OCCN3CCOCC3)ccc2c1C`: the GI50 was 1.88 µM in the assay on SW-620 colon; 1.57 µM with RPMI-8226 leukemia; 1.89 µM in the assay on OVCAR-3 ovarian; 1.55 µM in the assay with UACC-62 melanoma; 1.46 µM in the assay on HCT-15 colon; 1.6 µM with HCT-116 colon. The GI50 with NCI/ADR-RES ovarian is 2.48 µM; in the assay on MDA-MB-231 breast, 1.64 µM; in the assay with NCI-H522 lung it was 1.61 µM; with HOP-62 NSCLC, 2.44 µM. Besides, the TGI in the assay on SW-620 colon is 4.43 µM; with RPMI-8226 leukemia, 4.2 µM; with OVCAR-3 ovarian it was 5.69 µM; in the assay on UACC-62 melanoma, 3.19 µM; in the assay on HCT-15 colon, 3.12 µM; in the assay with HCT-116 colon, 4.55 µM. The TGI in the assay with NCI/ADR-RES ovarian was over 24 µM; with MDA-MB-231 breast, 5.18 µM; with NCI-H522 lung, 3.54 µM; with HOP-62 NSCLC, 6.88 µM.
On to `N#Cc1c(N/N=C\c2ccc(Cl)cc2)nc(N)nc1N1CCOCC1`, for which the GI50 in the assay with SW-620 colon was 47.1 µM; in the assay on RPMI-8226 leukemia, 16.4 µM; in the assay with OVCAR-3 ovarian, 22.5 µM; in the assay with UACC-62 melanoma it was 25.4 µM; in the assay with HCT-15 colon, 26.7 µM; in the assay with HCT-116 colon, 29.7 µM. In addition, the GI50 in the assay on NCI/ADR-RES ovarian was 43.1 µM; in the assay on MDA-MB-231 breast it was 25.3 µM; in the assay with NCI-H522 lung, 32.5 µM; in the assay on HOP-62 NSCLC, 86.6 µM. Moreover, the TGI was over 100 µM with SW-620 colon; 44.3 µM in the assay with RPMI-8226 leukemia; 60.5 µM in the assay with OVCAR-3 ovarian; over 100 µM in the assay with UACC-62 melanoma; 97.3 µM in the assay on HCT-15 colon; over 100 µM in the assay on HCT-116 colon. The TGI in the assay with NCI/ADR-RES ovarian, in the assay with MDA-MB-231 breast, in the assay on NCI-H522 lung and in the assay with HOP-62 NSCLC was over 100 µM throughout.
For `Cn1cc(C2=C(c3cn(CCCCCO)c4ccccc34)C(=O)NC2=O)c2ccccc21`, the GI50 in the assay with SW-620 colon was 3.17 µM; in the assay with RPMI-8226 leukemia, 6.6 µM; in the assay on OVCAR-3 ovarian it was 5.48 µM; with UACC-62 melanoma, 3.99 µM; with HCT-15 colon, 2.57 µM; in the assay on HCT-116 colon it was 4.67 µM. Further, the GI50 with NCI/ADR-RES ovarian was 7.04 µM; in the assay with MDA-MB-231 breast, 8.93 µM; in the assay with NCI-H522 lung, 2.27 µM; with HOP-62 NSCLC, 5.92 µM. Further, the TGI with SW-620 colon is over 25 µM; in the assay with RPMI-8226 leukemia, 18.4 µM; in the assay with OVCAR-3 ovarian it was 17.3 µM; in the assay with UACC-62 melanoma it was 9.17 µM; in the assay with HCT-15 colon, over 25 µM; with HCT-116 colon, over 25 µM. For the same molecule, the TGI with NCI/ADR-RES ovarian was over 22.5 µM; in the assay with MDA-MB-231 breast, over 24 µM; in the assay with NCI-H522 lung, 10.6 µM; in the assay with HOP-62 NSCLC it was 15.6 µM.

(Values after PubChem BioAssay (NCI).)
